This note sets out measurements from paper PMC11881906, “Development of xanthone derivatives as effective broad-spectrum antimicrobials: Disrupting cell wall and inhibiting DNA synthesis” (Science Advances, 2025).

≈ marks a conversion by molar mass, not a printed value.

The test system of data set [1] is A. baumannii ATCC 17978. Kind of data set: MIC, broth microdilution. Format: cell-based. Particulars: Acinetobacter baumannii, ATCC17978; 24-hour incubation, MHB. As to the method:
(§1) MIC was determined using the broth microdilution method in accordance with Clinical and Laboratory Standards Institute guidelines. All compounds were dissolved in dimethyl sulfoxide (DMSO; final DMSO concentration of less than 0.5%) and sterile double-distilled water and then diluted with Mueller-Hinton broth (MHB). Each compound’s stock solution was serially twofold diluted, resulting in concentrations ranging from 0.39 to 100 μg/ml, and thereafter added to sterile 96-well plates. All bacterial cell suspensions were adjusted in MHB to attain a starting inoculum of 1 × 10^6 cells/ml. A total of 100 μl volume of the bacterial suspension was then added to each well. Following a 24-hour incubation at 37°C, the optical density at 600 nm (OD600) was confirmed by measuring absorbance at 600 nm with a BioTek microplate reader. […] All measurements were repeated three times with duplicates each time.
A general note: Broth dilution looks for growth in wells or tubes with falling amounts of substance.

In data set [2] the test system is A. baumannii R2889. Kind of data set: MIC, broth microdilution. The data set is classed as cell-based. Particulars: Acinetobacter baumannii, 24-hour incubation, MHB. As to the method: as §1
The test system of data set [3] is K. pneumonia ATCC 10031. Kind of data set: MIC, broth microdilution. Format: cell-based. To be noted: Klebsiella pneumoniae, ATCC10031; 24-hour incubation, MHB. The method, then: as §1
Data set [4] has as its system K. pneumonia ATCC 14581. Kind of data set: MIC, broth microdilution. Format: cell-based. Particulars: Klebsiella pneumoniae, ATCC14581; 24-hour incubation, MHB. The method, then:
as §1

For data set [5], the system named is MRSA N315. Nature of the data set: MIC, broth microdilution. To be noted: Staphylococcus aureus, 24-hour incubation, MHB, read-out: MIC90 MRSA N315. Format: cell-based. As to the method:
as §1

Data set [6] has as its system MRSA NCTC 10442. Kind of data set: MIC, broth microdilution. Format: cell-based. Particulars: Staphylococcus aureus; 24-hour incubation, MHB; read-out: MIC90 MRSA NCTC 10442. As to the method: as §1
The test system of data set [7] is P. aeruginosa ATCC 9027. Nature of the data set: MIC, broth microdilution. Format: cell-based. Particulars: Pseudomonas aeruginosa, ATCC9027; 24-hour incubation, MHB. As to the method: as §1
Data set [8] concerns S. aureus ATCC 29213. Kind of data set: MIC, broth microdilution. The data set is classed as cell-based. Particulars: Staphylococcus aureus, ATCC29213, 24 h, 24-hour incubation, MHB; read-out: MIC90 S. aureus ATCC 29213. As to the method:
as §1

The subject of data set [9] is E. coli ATCC 25922. Nature of the data set: MIC, broth microdilution. Format: cell-based, Escherichia coli. Particulars: 24-hour incubation, MHB; for MIC90: Escherichia coli, ATCC25922, 24 h, read-out: MIC90 E. coli ATCC 25922. As to the method: as §1
Data set [10] concerns rabbit erythrocytes. Kind of data set: Hemolysis assay. Format: cell-based. To be noted: concentration causing 50% hemolysis of red blood cells; 1 hour, 37°C. The method, then:
The hemolytic activity of antimicrobial agents was investigated as previously described ([70]). Briefly, the rabbit erythrocytes were centrifuged at 2500 rpm for 3 min before being washed twice with sterile phosphate-buffered saline (PBS) (pH 7.4). Subsequently, the erythrocytes were diluted with PBS to a final concentration of 8% (v/v). The DMSO-dissolved compounds were twofold serially diluted in PBS to achieve a final concentration with DMSO less than 0.5%. […] Sterile PBS and 0.2% Triton X-100 were used as negative and positive controls, respectively. After 1 hour of incubation at 37°C, the tested samples were centrifuged at 2500 rpm for 5 min, and aliquots of the supernatant were added to 96-well microplates. The hemoglobin release was determined by measuring the absorbance at 576 nm using a BioTek multimode reader. The percentage of hemolytic activity was calculated using the following formula: Hemolysis rate (%) = [OD576 (compound) − OD576 (PBS)]/[OD576 (Triton X-100) − OD576 (PBS)] × 100. All measurements were repeated three times with duplicates each time.

In data set [11] the test system is Gram-positive bacteria. Nature of the data set: MIC, summary over Gram-positive strains. Particulars: read-out: MICs against Gram-positive bacteria, three Gram-positive strains. Format: cell-based. As to the method: as §1
Data set [12] concerns Gram-negative bacteria. Kind of data set: MIC, Gram-negative strains. The data set is classed as cell-based. Particulars: read-out: MICs against Gram-negative bacteria. As to the method: as §1
The subject of data set [13] is K. pneumoniae. Nature of the data set: MIC, summary over K. pneumoniae strains. Format: cell-based. To be noted: Klebsiella pneumoniae, two strains; read-out: MICs against K. pneumoniae. As to the method: as §1
Data set [14] can be described thus: CCK-8 cytotoxicity assay. Format: cell-based. To be noted: mouse, NCTC clone 929 fibroblast cells, 25 μg/ml, read-out: %Viable cells NCTC clone 929 cells. As to the method:
Cytotoxicity of the compound tested was assessed by CCK-8 assays as previously described ([71]). […] Following a 24-hour incubation, 10 μl of CCK-8 reagent was added to each well and incubated for 1 hour. The absorbance at 450 nm was measured by a microplate reader. All measurements were repeated three times with duplicates each time.

Data set [15] deals with S. aureus ATCC 29213. Nature of the data set: Serial passage resistance induction. To be noted: 20-day passages at 0.5× MIC. The data set is classed as cell-based, Staphylococcus aureus. The method, then:
The bacteria were grown in a medium containing 0.5× MIC of each compound to prepare the bacterial suspension for the next MIC determination. The MICs were then recorded after incubation at 37°C for 24 hours. Daily passages were continued until the initial MIC increased by more than fourfold. The stability of acquired resistance was investigated by MIC determination and repeated for 20 days.

As for `[H]/N=C(/N)NCCCOc1ccc2c(=O)c3c(OCC=C(C)CCC=C(C)C)cc(OCCCNC(=N)N)cc3oc2c1` [XT18], the MIC90 in data set [1] came to 25 µg/mL (≈ 43.2 µM); in data set [2], 12.5 µg/mL (≈ 21.6 µM); in data set [3] it was 6.25 µg/mL (≈ 10.8 µM); in data set [4] it was 12.5 µg/mL (≈ 21.6 µM); in data set [5], 0.78 µg/mL (≈ 1.35 µM); in [6], 0.78 µg/mL (≈ 1.35 µM). Moreover, the MIC90 in data set [7] is 12.5 µg/mL (≈ 21.6 µM); in data set [8] it was 0.78 µg/mL (≈ 1.35 µM); in [9] it was 1.56 µg/mL (≈ 2.7 µM). In data set [10], this molecule returned a concentration for 50% haemolysis (HC50) of 65.3 ± 2.75 µg/mL. The MIC in data set [11] was determined as 0.39 µg/mL (≈ 0.674 µM); in data set [12], 1.56 µg/mL (≈ 2.7 µM).
Consider `COc1cc(OCCCNC(=N)N)cc2oc3cc(OCCCNC(=N)N)ccc3c(=O)c12` [XT19], for which the MIC90 stood at 12.5 µg/mL (≈ 27.4 µM) in data set [5], 6.25 µg/mL (≈ 13.7 µM) in data set [6], 6.25 µg/mL (≈ 13.7 µM) in [8] and 100 µg/mL (≈ 219 µM) in data set [9]. For the same molecule, in data set [10], the HC50 was greater than 200 µg/mL. Further, the MIC is 6.25 to 12.5 µg/mL (≈ 13.7 to 27.4 µM) in data set [11] and 100 µg/mL (≈ 219 µM) in data set [12].
Turning to `CC(C)=CCOc1cc(OCCCCCCNC(=N)N)cc2oc3cc(OCCCCCCNC(=N)N)ccc3c(=O)c12` [XT44], the MIC90 was determined as 6.25 µg/mL (≈ 10.5 µM) in data set [1]; 12.5 µg/mL (≈ 21 µM) in data set [2]; 0.78 µg/mL (≈ 1.31 µM) in data set [3]; 0.78 µg/mL (≈ 1.31 µM) in data set [4]; 0.098 µg/mL (≈ 0.165 µM) in data set [5]; 0.098 µg/mL (≈ 0.165 µM) in data set [6]. The MIC90 is 25 µg/mL (≈ 42 µM) in data set [7], 0.098 µg/mL (≈ 0.165 µM) in data set [8] and 1.56 to 12.5 µg/mL (≈ 2.62 to 21 µM) in data set [9]. For the same molecule, the “MIC90 E. coli ATCC 25922” value in data set [9] worked out at 1.56 µg/mL (≈ 2.62 µM). Also, the concentration for 50% haemolysis (HC50) in data set [10] was greater than 200 µg/mL. In addition, the MIC in data set [11] was 0.098 to 1.56 µg/mL (≈ 0.165 to 2.62 µM); in data set [13] it was 0.78 µg/mL (≈ 1.31 µM). The viability at 24 h, 25 μg/ml in data set [14] was 4.87 ± 0.4%.
As to `CCn1cc(C(=O)O)c(=O)c2cc(F)c(N3CCNCC3)cc21` [norfloxacin, reference compound], the “increase in MIC values during passages” value in data set [15] is “approximately 16 fold”.

As usually defined, the MIC90 is the lowest concentration that inhibits either 90% of growth or 90% of the strains tested, depending on the study. For orientation: HC50 means the concentration giving 50% haemolysis. Read a high HC50 as weaker haemolysis.
